What was measured:
[1] = test system: spring barley (HORVS); test: Postemergence greenhouse trial, % visual injury on spring barley; type: in vivo, Hordeum vulgare
In short: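 Greenhouse crops at second to third true leaf stage sprayed postemergence at 187 L/ha with herbicide (g ae/ha) plus safener (g ai/ha) in acetone/DMSO diluted into 1.5% v/v Agri-dex. Injury scored visually versus solvent-blank controls after 20-22 d, 0 (none) to 100% (complete kill); expected mixture effects by Colby's equation.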

[2] = test system: pigweed (AMARE); test: Postemergence greenhouse trial, % visual injury on pigweed; type: in vivo, Amaranthus retroflexus; conditions: for % visual injury, Ob / % visual injury, observed (Ob): AMARE
In short: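 Postemergence greenhouse spray (187 L/ha, 1.5% v/v Agri-dex in water, acetone/DMSO stocks) on plants at second–third true leaf stage, ~23/22 °C, 14 h photoperiod; herbicides in g ae/ha, safener cloquintocet-mexyl in g ai/ha. Visual injury 0–100% versus solvent-blank controls after 20–22 d; Colby's equation gave expected mixture effects.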

[3] = test system: winter rape (BRSNW); test: Postemergence greenhouse trial, % visual injury on winter rape; type: in vivo, Brassica napus; conditions: for % visual injury, Ob: BRSNW
In short: (§1)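 Plants at second or third true leaf stage, greenhouse-grown (14 h photoperiod, ~23/22° C.), sprayed postemergence with compounds alone or with safener cloquintocet-mexyl in 1.5% v/v Agri-dex crop oil at 187 L/ha. Visual injury scored 0–100% versus solvent-blank controls after 20-22 d; expected mixture effects by Colby's equation.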

[4] = test system: thistle (CIRAR); test: Postemergence greenhouse trial, % visual injury on thistle; type: in vivo, Cirsium arvense; conditions: CIRAR; 4.375 g/ha, applied alone
In short: as §1

[5] = compound 0 g/ha, CQC-m 4.375 g/ha
[6] = compound 0 g/ha, CQC-m 8.75 g/ha
[7] = compound 0 g/ha, CQC-m 17.5 g/ha

CCCCCC(C)OC(=O)COc1ccc(Cl)c2cccnc12 (centres unmarked) [CQC-m, cloquintocet-mexyl, reference compound]
0%: % visual injury, Ob ([1]; HORVS, 4.375 g/ha, applied alone) | % visual injury, Ob ([1]; HORVS, 8.75 g/ha, applied alone) | % visual injury, Ob ([1]; HORVS, 17.5 g/ha, applied alone) | % visual injury, Ob ([1]; HORVS, 35 g/ha, applied alone) | % visual injury, Ob ([1]; HORVS, 70 g/ha, applied alone) | % visual injury, Ob ([1]; HORVS, compound 0, CQC-m 4.375 g/ha) | % visual injury, Ob ([1]; HORVS, compound 0, CQC-m 8.75 g/ha) | % visual injury, Ob ([1]; HORVS, compound 0, CQC-m 17.5 g/ha) | % visual injury, Ob ([1]; HORVS, compound 0, CQC-m 35 g/ha) | % visual injury, Ob ([1]; HORVS, compound 0, CQC-m 70 g/ha) | % visual injury, Ob ([1]; HORVS, compound 0 g/ha, CQC-m 4.375 g/ha) | % visual injury, Ob ([1]; HORVS, compound 0 g/ha, CQC-m 8.75 g/ha) | % visual injury, Ob ([1]; HORVS, compound 0 g/ha, CQC-m 17.5 g/ha) | % visual injury, Ob ([1]; HORVS, compound 0 g/ha, CQC-m 35 g/ha) | % visual injury, Ob ([1]; HORVS, compound 0 g/ha, CQC-m 70 g/ha) | % visual injury, observed (Ob) ([1]; HORVS, compound 8 0 + CQC-m 4.375 g/ha) | % visual injury, observed (Ob) ([1]; HORVS, compound 8 0 + CQC-m 8.75 g/ha) | % visual injury, observed (Ob) ([1]; HORVS, compound 8 0 + CQC-m 17.5 g/ha) | % visual injury, observed (Ob) ([1]; HORVS, compound 8 0 + CQC-m 35 g/ha) | % visual injury, observed (Ob) ([1]; HORVS, compound 8 0 + CQC-m 70 g/ha) | % visual injury, Ob ([1]; alone, 4.375 g/ha) | % visual injury, Ob ([1]; alone, 8.75 g/ha) | % visual injury, Ob ([1]; alone, 17.5 g/ha) | % visual injury, Ob ([1]; alone, 20 g/ha) | % visual injury, Ob ([1]; alone, 35 g/ha) | % visual injury, Ob ([1]; alone, 40 g/ha) | % visual injury, Ob ([1]; alone, 70 g/ha) | % visual injury, Ob ([1]; alone, 80 g/ha) | % visual injury, Ob ([2]; 4.375 g/ha, applied alone) | % visual injury, Ob ([2]; 8.75 g/ha, applied alone) | % visual injury, Ob ([2]; 17.5 g/ha, applied alone) | % visual injury, Ob ([2]; 35 g/ha, applied alone) | % visual injury, Ob ([2]; 70 g/ha, applied alone) | % visual injury, Ob ([2]; compound 0, CQC-m 4.375 g/ha) | % visual injury, Ob ([2]; compound 0, CQC-m 8.75 g/ha) | % visual injury, Ob ([2]; compound 0, CQC-m 17.5 g/ha) | % visual injury, Ob ([2]; compound 0, CQC-m 35 g/ha) | % visual injury, Ob ([2]; compound 0, CQC-m 70 g/ha) | % visual injury, Ob [2, 5] | % visual injury, Ob [2, 6] | % visual injury, Ob [2, 7] | % visual injury, Ob ([2]; compound 0 g/ha, CQC-m 35 g/ha) | % visual injury, Ob ([2]; compound 0 g/ha, CQC-m 70 g/ha) | % visual injury, observed (Ob) ([2]; safener alone 2.5 g/ha) | % visual injury, observed (Ob) ([2]; safener alone 5 g/ha) | % visual injury, observed (Ob) ([2]; safener alone 10 g/ha) | % visual injury, observed (Ob) ([2]; safener alone 20 g/ha) | pest or weed control at 4.375 g/ha ([2]; Amaranthus retroflexus, post-emergence, alone, 4.375 g/ha, read-out: % visual injury, Ob) | pest or weed control at 8.75 g/ha ([2]; Amaranthus retroflexus, post-emergence, alone, 8.75 g/ha, read-out: % visual injury, Ob) | pest or weed control at 17.5 g/ha ([2]; Amaranthus retroflexus, post-emergence, alone, 17.5 g/ha, read-out: % visual injury, Ob) | pest or weed control at 20 g/ha ([2]; Amaranthus retroflexus, post-emergence, alone, 20 g/ha, read-out: % visual injury, Ob) | pest or weed control at 35 g/ha ([2]; Amaranthus retroflexus, post-emergence, alone, 35 g/ha, read-out: % visual injury, Ob) | pest or weed control at 40 g/ha ([2]; Amaranthus retroflexus, post-emergence, alone, 40 g/ha, read-out: % visual injury, Ob) | pest or weed control at 70 g/ha ([2]; Amaranthus retroflexus, post-emergence, alone, 70 g/ha, read-out: % visual injury, Ob) | pest or weed control at 80 g/ha ([2]; Amaranthus retroflexus, post-emergence, alone, 80 g/ha, read-out: % visual injury, Ob) | % visual injury, Δ ([2]; alone, 35 g/ha) | % visual injury, Ob ([3]; 4.375 g/ha, applied alone) | % visual injury, Ob ([3]; 8.75 g/ha, applied alone) | % visual injury, Ob ([3]; 17.5 g/ha, applied alone) | % visual injury, Ob ([3]; 35 g/ha, applied alone) | % visual injury, Ob ([3]; 70 g/ha, applied alone) | % visual injury, Ob ([3]; compound 0, CQC-m 4.375 g/ha) | % visual injury, Ob ([3]; compound 0, CQC-m 8.75 g/ha) | % visual injury, Ob ([3]; compound 0, CQC-m 17.5 g/ha) | % visual injury, Ob ([3]; compound 0, CQC-m 35 g/ha) | % visual injury, Ob ([3]; compound 0, CQC-m 70 g/ha) | % visual injury, Ob [3, 5] | % visual injury, Ob [3, 6] | % visual injury, Ob [3, 7] | % visual injury, Ob ([3]; compound 0 g/ha, CQC-m 35 g/ha) | % visual injury, Ob ([3]; compound 0 g/ha, CQC-m 70 g/ha) | plant injury at 4.375 g/ha ([3]; Brassica napus, post-emergence, alone, 4.375 g/ha, read-out: % visual injury, Ob) | plant injury at 8.75 g/ha ([3]; Brassica napus, post-emergence, alone, 8.75 g/ha, read-out: % visual injury, Ob) | plant injury at 17.5 g/ha ([3]; Brassica napus, post-emergence, alone, 17.5 g/ha, read-out: % visual injury, Ob) | plant injury at 35 g/ha ([3]; Brassica napus, post-emergence, alone, 35 g/ha, read-out: % visual injury, Ob) | plant injury at 70 g/ha ([3]; Brassica napus, post-emergence, alone, 70 g/ha, read-out: % visual injury, Ob) | % visual injury, Ob [4]
